Columns and labels:
[1] = Chemical stability (half-life) in phosphate buffer by HPLC; type: physicochemical; conditions: pH 7.4, phosphate buffer (pH7.40; 37°C)
Description: Chemical stability (half-life) in phosphate buffer (pH 7.40; 37°C) of some of the compounds of the present invention was determined using high performance liquid chromatography (HPLC). A Hamilton PRP-1 (250 mm x 4.1 mm) column was used with UV detection at 280 nm. The mobile phase used consisted of a 0.01 M solution of tetradecyltrimethylammonium bromide in a mixture of 70% 0.072M phosphate buffer (pH 8.2) and 30% acetonitrile. In some experiments, minor adjustments to the pH and in the acetonitrile concentration were made to improve resolutions.

Prot. mirabilis 90 = test: In vitro MIC, Agar Dilution Method; type: cell-based
Description: (§1) In vitro activity of the compounds of the present invention was measured by the Minimum Inhibitory Concentration (MIC) in micrograms/ml utilizing the Agar Dilution Method, which is well known in the art, against a variety of gram-negative and gram-positive organisms.

Str. pneumoniae 6301 = test: In vitro MIC, Agar Dilution Method; type: cell-based
Description: as §1

K. pneumoniae A = test: In vitro MIC, Agar Dilution Method; type: cell-based
Description: as §1

Staph. aureus 67 = test: In vitro MIC, Agar Dilution Method; type: cell-based
Description: as §1

Ser. marcescens 1071 = test: In vitro MIC, Agar Dilution Method; type: cell-based
Description: as §1

Str. pyogenes 4 = test: In vitro MIC, Agar Dilution Method; type: cell-based
Description: as §1

Enter. cloacae 5699 = test: In vitro MIC, Agar Dilution Method; type: cell-based
Description: as §1

Str. faecalis ATCC 29212 = test: In vitro MIC, Agar Dilution Method; type: cell-based
Description: as §1

E. coli ATCC 25922 = test: microbe, parasite or virus in culture; type: cell-based; conditions: agar dilution
Description: as §1

E. coli 257 = test: microbe, parasite or virus in culture; type: cell-based; conditions: agar dilution
Description: as §1

Enter. cloacae P99 = test: microbe, parasite or virus in culture; type: cell-based; conditions: agar dilution
Description: as §1

E. coli TEM-1 = test: microbe, parasite or virus in culture; type: cell-based; conditions: agar dilution
Description: as §1

Prot. vulgaris ATCC 6380 = test: In vitro MIC, Agar Dilution Method; type: cell-based
Description: as §1

[2] = tested on: Ps. aeruginosa ATCC 27853; test: In vitro MIC, Agar Dilution Method; type: cell-based
Description: as §1

Staph. aureus 1059B = test: In vitro MIC, Agar Dilution Method; type: cell-based
Description: as §1

Cit. freundi BS-16 = test: In vitro MIC, Agar Dilution Method; type: cell-based
Description: as §1

Prot. vulgaris 1028 BC = test: In vitro MIC, Agar Dilution Method; type: cell-based
Description: as §1

Ps. aeruginosa 8780 = test: In vitro MIC, Agar Dilution Method; type: cell-based
Description: as §1

Ps. aeruginosa 18SH = test: In vitro MIC, Agar Dilution Method; type: cell-based
Description: as §1

Staph. aureus ATCC 29213 = test: In vitro MIC, Agar Dilution Method; type: cell-based
Description: as §1

Staph. aureus 753 = test: In vitro MIC, Agar Dilution Method; type: cell-based
Description: as §1

Ps. aeruginosa 5712 = test: In vitro MIC, Agar Dilution Method; type: cell-based
Description: as §1

Staph. aureus Smith = test: In vitro MIC, Agar Dilution Method; type: cell-based
Description: as §1

Ser. marcescens SM = test: In vitro MIC, Agar Dilution Method; type: cell-based
Description: as §1

Ps. aeruginosa 765 = test: In vitro MIC, Agar Dilution Method; type: cell-based
Description: as §1

[3] = Prot. mirabilis 90, agar dilution
[4] = Str. pneumoniae 6301, agar dilution
[5] = Staph. aureus 67, agar dilution
[6] = Ser. marcescens 1071, agar dilution
[7] = Enter. cloacae 5699, agar dilution
[8] = Str. faecalis ATCC 29212, agar dilution

SMILES	MIC (E. coli ATCC 25922) [µg/mL]	MIC (E. coli 257) [µg/mL]	MIC (Enter. cloacae P99) [µg/mL]	MIC (E. coli TEM-1) [µg/mL]	MIC (Prot. mirabilis 90; [3]) [µg/mL]	MIC (Prot. vulgaris ATCC 6380) [µg/mL]	MIC [2] [µg/mL]	MIC (Str. pneumoniae 6301; [4]) [µg/mL]	MIC (Staph. aureus 1059B) [µg/mL]	MIC (K. pneumoniae A; K. pneumoniae A, agar dilution) [µg/mL]	MIC (Cit. freundi BS-16) [µg/mL]	MIC (Staph. aureus 67; [5]) [µg/mL]	MIC (Ser. marcescens 1071; [6]) [µg/mL]	MIC (Prot. vulgaris 1028 BC) [µg/mL]	MIC (Ps. aeruginosa 8780) [µg/mL]	MIC (Ps. aeruginosa 18SH) [µg/mL]	MIC (Str. pyogenes 4; Str. pyogenes 4, agar dilution) [µg/mL]	MIC (Enter. cloacae 5699; [7]) [µg/mL]	MIC (Staph. aureus ATCC 29213) [µg/mL]	MIC (Staph. aureus 753) [µg/mL]	also measured
O=C([O-])C1=C(CN2CCN(c3cc4c(cc3F)c(=O)c(C(=O)[O-])cn4C3CC3)CC2)CS[C@@H]2[C@H](NC(=O)C(C(=O)[O-])c3ccccc3)C(=O)N12.[Na+].[Na+].[Na+] (stereo partly drawn) [Compound F, (6R-trans)-3-[[4-(3-Carboxy-1-cyclopropyl-6-fluoro-1,4-dihydro-4-oxo-7-quinolinyl)-1-piperazinyl]methyl]-7-[(carboxyphenylacetyl)amino]-8-oxo-5-thia-1-azabicyclo[4.2.0]oct-2-ene-2-carboxylic acid sodium salt]	–	–	–	–	–	–	–	–	–	–	–	–	–	–	–	–	–	–	–	–	half-life [1]: 228 h; MIC (Prot. mirabilis 90; Proteus mirabilis, 90): 1000 µg/mL; MIC (Str. pneumoniae 6301; Streptococcus pneumoniae, 6301): 500 µg/mL; MIC (K. pneumoniae A; Klebsiella pneumoniae): 1000 µg/mL; MIC (Staph. aureus 67; Staphylococcus aureus, 67): 8000 µg/mL; MIC (Ser. marcescens 1071; Serratia marcescens, 1071): 500 µg/mL; MIC (Str. pyogenes 4; Streptococcus pyogenes, 4): 500 µg/mL; MIC (Enter. cloacae 5699; Enterobacter cloacae, 5699): 500 µg/mL; MIC (Str. faecalis ATCC 29212; Enterococcus faecalis, ATCC29212): 32000 µg/mL
CC(C)(O/N=C(\C(=O)N[C@@H]1C(=O)N2C(C(=O)[O-])=C(CN3CCN(c4cc5c(cc4F)c(=O)c(C(=O)[O-])cn5C4CC4)CC3)CS[C@H]12)c1csc(N)n1)C(=O)NNC(=O)c1ccc(O)c(O)c1.[Na+].[Na+] [Compound G, [6R-[6α,7β(Z)]]-7-[[[(2-Amino-4-thiazolyl)[1-[[(3,4-dihydroxybenzoyl)hydrazino]carbonyl]-1-methylethoxy]imino]acetyl]amino]-3-[[4-(3-carboxy-1-cyclopropyl-6-fluoro-1,4-dihydro-4-oxo-7-quinolinyl)-1-piperazinyl]methyl]-8-oxo-5-thia-1-azabicyclo[4.2.0]oct-2-ene-2-carboxylic acid sodium salt]	125	125	250	62.5	500	125	500	125	4000	500	250	8000	500	250	250	500	250	250	4000	4000	MIC (Ps. aeruginosa 5712): 250 µg/mL; MIC (Staph. aureus Smith): 2000 µg/mL; MIC (Str. faecalis ATCC 29212; [8]): 4000 µg/mL; MIC (Ser. marcescens SM): 500 µg/mL; MIC (Ps. aeruginosa 765): 500 µg/mL
CC(C)(O/N=C(\C(=O)N[C@@H]1C(=O)N2C(C(=O)[O-])=C(CN3CCN(c4cc5c(cc4F)c(=O)c(C(=O)O)cn5C4CC4)CC3)CS[C@H]12)c1csc(N)n1)C(=O)O.[Na+] [Compound A, [6R-[6α,7β(Z)]]-7-[[(2-Amino-4-thiazolyl)[(1-carboxy-1-methylethoxy)imino]acetyl]amino]-3-[[4-(3-carboxy-1-cyclopropyl-6-fluoro-1,4-dihydro-4-oxo-7-quinolinyl)-1-piperazinyl]methyl]-8-oxo-5-thia-1-azabicyclo[4.2.0]oct-2-ene-2-carboxylic acid sodium salt]	250	250	500	500	2000	500	8000	250	4000	500	125	16000	1000	1000	8000	2000	250	1000	8000	8000	MIC (Ps. aeruginosa 5712): 16000 µg/mL; MIC (Staph. aureus Smith): 8000 µg/mL; MIC (Str. faecalis ATCC 29212; [8]): 8000 µg/mL; MIC (Ser. marcescens SM): 1000 µg/mL; MIC (Ps. aeruginosa 765): 8000 µg/mL

— patent EP0550775A1, “Cephalosporin derivatives” (F. HOFFMANN-LA ROCHE AG, priority 1992, dated 1993)
